The results in this text go back to ChEMBL document CHEMBL1130522, “Orevactaene,1 a novel binding inhibitor of HIV-1 rev protein to Rev response element (RRE) from Epicoccum nigrum WC47880” (Bioorg Med Chem Lett, 1997).

Assay [1] is described as follows: Inhibitory activity towards HIV-I regulatory protein Rev and its viral RNA-binding site, Rev response element (RRE) binding.
The subject of another assay is M109. In words: The compound was tested for its cytotoxicity on the murine tumor cell line M109. It is filed as functional, cell-based. The settings on record: Mus musculus.

A word on the IC50: it is the midpoint of a concentration-inhibition curve. Lower therefore signals greater potency. Consider `CCC(C)CC(C)/C=C(/C=C(C)/C=C/C=C/C=C/C=C/C=C/c1cc2c(c(=O)o1)[C@H](O)[C@@H](O)[C@H](C(O)C(O)CO)O2)C(=O)O` (some centres not stated), for which the half-inhibitory concentration (IC50) in assay [1] worked out at 3.6 µM; in the assay with M109, 82 µM.
